One assay concerns the target T1, full-length RIα (Bos taurus, UniProt P00514).
T1 construct: Full-length bovine RIα was expressed in E. coli 222; made in house; host or cells: E. coli 222
The experiment in a line: Fluorescence anisotropy binding assay (Example 9). Set-up: species or system bovine. Conditions: for Kd: Table 8, truncated and substituted peptides, read-out: KD (nM) Rlα; for binding to RIα, in words: compared with the unsubstituted peptide. The protocol: (§1) Each peptide was fluorescently labeled using a 25 mM solution of tetramethylrhodamine-5-maleimide (catalog number T-6027; Molecular Probes, Eugene, Oreg.) dissolved in DMSO. The peptides were labeled by incubating with a three-fold molar excess of the label for 16 hr at 4° C. in 20 mM Tris, pH 7.0 and 1 mM tris-(2-carboxyethyl) phosphine, hydrochloride (TCEP) (non-thiol reducing agent, Molecular Probes). The sample was quenched with 1 mM, β-mercaptoethanol to bind to any unreacted maleimide and diluted with 0.1% TFA for purification by HPLC. The labeled peptides were resolved using a C18 column with a water/acetonitrile gradient containing 0.1% TFA. The concentration of each peptide was determined by absorbance at 541 nm after diluting into 100% methanol and using an extinction coefficient of 91,000 M^−1 cm^−1 for absorbance of the rhodamine label at 541 nm (Molecular Probes Catalog). The peptides were stored at 4° C. in 50% acetonitrile.
(§2) Full-length murine RIIα was expressed in E. coli BL21 (DE3). Full-length bovine RIα was expressed in E. coli 222. The proteins were purified as previously described using a cAMP affinity resin (Hamuro et al. (2002) J. Mol. Biol., 321:703). The protein concentrations were determined using the following extinction coefficients at 280 nm, which were calculated using a standard concentration of protein calibrated using quantitative amino acid analysis: RIα 52,603 M^−1 cm^−1 and RIIα 62,456 M^−1 cm^−1. The proteins were stored at 4° C. in 50 mM MES pH 5.8, 50 mM NaCl, 2 mM EDTA, 2 mM EGTA, 2 mM DTT.
(§3) Binding of each fluorescently labeled peptide to the regulatory subunits was monitored using fluorescence anisotropy. RIα and RIIα were serially diluted beginning at 1 μM and 0.1 μM, respectively, into 10 mM HEPES pH 7.4, 0.15 M NaCl, 3 mM EDTA, 0.005% Surfactant P20 (Biacore) containing either 10 nM or 1 nM of fluorescently labeled peptide for RIα and RIIα, respectively. The samples were equilibrated for at least 1 hour at room temperature and fluorescence anisotropy monitored using a Fluoromax-2 (Jobin Yvon Horiba, SPEX Division, Edison, N.J.) equipped with Glan-Thompson polarizers. The rhodamine-labeled peptide was excited at 541 nm (5-10 nm bandpass) and emission monitored at 575 nm (5-10 nm bandpass). The anisotropy was calculated directly with the Fluoromax software using the following equation: r=(IVV−G*IVH)/(IVV+2G*IVH) (1) where r is the steady state anisotropy, IVV is the fluorescence intensity with the excitation and emission polarizers oriented in the vertical position (0° from normal), IVH is the fluorescence intensity with the excitation polarizer in the vertical position and the emission polarizer oriented in the horizontal position (90°) relative to the excitation polarizer, G is the monochromator grating factor which is equal to (IHV/IHH), with the first subscript indicating the position of the excitation polarizer and the second subscript indicating position of the emission polarizer. Three separate binding experiments were averaged and fit to a 1:1 binding model using the non-linear regression application in GraphPad Prism version 3.00 (GraphPad Software, San Diego, Calif.).
Background: Fluorescence polarisation rises when a labelled molecule tumbles more slowly, as on binding a larger partner.

For a further assay, the target named is T2, full-length RIIα (Mus musculus, UniProt P12367).
T2 construct: Full-length murine RIIα was expressed in E. coli BL21 (DE3); made in house; host or cells: E. coli BL21 (DE3)
The experiment in a line: Fluorescence anisotropy binding assay (Example 9). Set-up: species or system murine. Conditions: for Kd: Table 8, truncated and substituted peptides, read-out: KD (nM) Rllα; for binding to RIIα, in words: compared with the unsubstituted peptide. Here is the method: as §1, §2, §3

Ends that are not written are not given here. Peptide text beside a SMILES is read from it. * marks the point of attachment. X1 = CN(C)c1ccc2c(c1)Oc1cc(N(C)C)ccc1C21OC(=O)c2cc(N3C(=O)CC(*)C3=O)ccc21

T1 sequence (P00514 whole entry): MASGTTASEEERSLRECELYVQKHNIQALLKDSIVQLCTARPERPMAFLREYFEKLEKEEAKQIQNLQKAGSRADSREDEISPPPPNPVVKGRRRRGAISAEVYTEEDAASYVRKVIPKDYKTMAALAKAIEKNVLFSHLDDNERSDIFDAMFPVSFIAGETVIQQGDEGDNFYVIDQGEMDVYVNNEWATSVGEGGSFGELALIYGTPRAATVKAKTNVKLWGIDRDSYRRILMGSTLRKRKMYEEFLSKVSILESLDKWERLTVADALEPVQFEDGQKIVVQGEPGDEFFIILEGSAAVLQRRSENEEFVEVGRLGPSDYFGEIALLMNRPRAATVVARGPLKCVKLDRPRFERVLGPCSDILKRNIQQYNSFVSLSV
T2 sequence (P12367 whole entry): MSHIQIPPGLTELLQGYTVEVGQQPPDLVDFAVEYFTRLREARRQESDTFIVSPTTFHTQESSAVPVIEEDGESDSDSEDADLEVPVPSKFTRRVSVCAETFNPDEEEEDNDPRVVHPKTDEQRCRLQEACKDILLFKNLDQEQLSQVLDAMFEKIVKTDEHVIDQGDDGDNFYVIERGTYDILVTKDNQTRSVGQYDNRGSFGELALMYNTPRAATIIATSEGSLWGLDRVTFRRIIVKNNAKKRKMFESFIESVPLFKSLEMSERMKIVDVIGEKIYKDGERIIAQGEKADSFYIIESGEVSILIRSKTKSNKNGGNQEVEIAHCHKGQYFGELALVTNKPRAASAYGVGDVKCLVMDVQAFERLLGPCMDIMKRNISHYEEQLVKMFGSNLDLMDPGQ

Usually Kd stands for the concentration at which binding is half-saturated. With `CC[C@H](C)[C@H](NC(=O)[C@H](CCCCN)NC(=O)[C@H](Cc1c[nH]c2ccccc12)NC(=O)[C@H](C)NC(=O)[C@H](CC(C)C)NC(=O)[C@H](CC(=O)O)NC(C)=O)C(=O)N[C@@H](C)C(=O)N[C@@H](CCCCN)C(=O)N[C@@H](CCSC)C(=O)N[C@H](C(=O)N[C@H](C(=O)N[C@@H](CO)C(=O)N[C@@H](CC(=O)O)C(=O)N[C@H](C(=O)N[C@@H](CCSC)C(=O)N[C@@H](CCC(N)=O)C(=O)N[C@@H](CCC(N)=O)C(=O)N[C@@H](CSC1CC(=O)N(c2ccc3c(c2)C(=O)OC32c3ccc(N(C)C)cc3Oc3cc(N(C)C)ccc32)C1=O)C(N)=O)C(C)C)C(C)C)[C@@H](C)CC` (stereo partly drawn) [SEQ ID NO:112, Ac-DLAWKIAKMIVSDVMQQC] (Ac-DLAWKIAKMIVSDVMQQC(X1)-NH2), the Kd at full-length RIα was 773 nM; at full-length RIIα it was 107 nM.
Turning to “VQGNTDEAQEELAWKIAKMIWSD[I/V]MQQ [SEQ ID NO:54]”, the “binding to RIα, in words” value on full-length RIα is on record as “binds tightly”. Further, the “binding to RIIα, in words” value at full-length RIIα is recorded as “weakly”.
As for `CC[C@H](C)[C@H](NC(=O)[C@H](CCCCN)NC(=O)[C@H](Cc1c[nH]c2ccccc12)NC(=O)[C@H](C)NC(=O)[C@H](CC(C)C)NC(=O)[C@H](CCC(=O)O)NC(=O)[C@H](CCC(=O)O)NC(=O)[C@H](CCC(N)=O)NC(=O)[C@H](C)NC(=O)[C@H](CCC(=O)O)NC(=O)[C@H](CC(=O)O)NC(=O)[C@@H](NC(=O)[C@H](CC(N)=O)NC(=O)CNC(=O)[C@H](CCC(N)=O)NC(=O)[C@@H](N)C(C)C)[C@@H](C)O)C(=O)N[C@@H](C)C(=O)N[C@@H](CCCCN)C(=O)N[C@@H](CCSC)C(=O)N[C@H](C(=O)N[C@@H](Cc1c[nH]c2ccccc12)C(=O)N[C@@H](CO)C(=O)N[C@@H](CC(=O)O)C(=O)N[C@H](C(=O)N[C@@H](CCSC)C(=O)N[C@@H](CCC(N)=O)C(=O)N[C@@H](CCC(N)=O)C(=O)N[C@@H](CSC1CC(=O)N(c2ccc3c(c2)C(=O)OC32c3ccc(N(C)C)cc3Oc3cc(N(C)C)ccc32)C1=O)C(N)=O)C(C)C)[C@@H](C)CC` (stereo partly drawn) [SEQ ID NO:111] (H-VQGNTDEAQEELAWKIAKMIWSDVMQQC(X1)-NH2), the Kd on full-length RIα amounted to 120 nM; on full-length RIIα, 83 nM.
The corresponding values for `CC[C@H](C)[C@H](NC(=O)[C@H](CCCCN)NC(=O)[C@H](Cc1c[nH]c2ccccc12)NC(=O)[C@H](C)NC(=O)[C@H](Cc1ccccc1)NC(=O)[C@H](CCC(=O)O)NC(=O)[C@H](CCC(=O)O)NC(=O)[C@@H](N)CCC(N)=O)C(=O)N[C@@H](C)C(=O)N[C@@H](CCCCN)C(=O)N[C@@H](CCSC)C(=O)N[C@H](C(=O)N[C@H](C(=O)N[C@@H](CO)C(=O)N[C@@H](CC(=O)O)C(=O)N[C@H](C(=O)N[C@@H](Cc1ccccc1)C(=O)N[C@@H](CCC(N)=O)C(=O)N[C@@H](CCC(N)=O)C(=O)N[C@@H](CSC1CC(=O)N(c2ccc3c(c2)C(=O)OC32c3ccc(N(C)C)cc3Oc3cc(N(C)C)ccc32)C1=O)C(N)=O)C(C)C)[C@@H](C)CC)[C@@H](C)CC` (stereo partly drawn) [PV-48] (H-QEEFAWKIAKMIISDVFQQC(X1)-NH2) are 12 nM and 124 nM.
On to `CC[C@H](C)[C@H](NC(=O)[C@H](CCCCN)NC(=O)[C@H](Cc1c[nH]c2ccccc12)NC(=O)[C@H](C)NC(=O)[C@H](CC(C)C)NC(=O)[C@H](CCC(=O)O)NC(=O)[C@H](CCC(=O)O)NC(=O)[C@@H](N)Cc1ccccc1)C(=O)N[C@@H](C)C(=O)N[C@@H](CCCCN)C(=O)N[C@@H](CCSC)C(=O)N[C@H](C(=O)N[C@@H](Cc1c[nH]c2ccccc12)C(=O)N[C@@H](CO)C(=O)N[C@@H](CC(=O)O)C(=O)N[C@H](C(=O)N[C@@H](CCSC)C(=O)N[C@@H](CCC(N)=O)C(=O)N[C@@H](CCC(N)=O)C(=O)N[C@@H](CSC1CC(=O)N(c2ccc3c(c2)C(=O)OC32c3ccc(N(C)C)cc3Oc3cc(N(C)C)ccc32)C1=O)C(N)=O)C(C)C)[C@@H](C)CC` (stereo partly drawn) [PV-37] (H-FEELAWKIAKMIWSDVMQQC(X1)-NH2), for which the Kd at full-length RIα turned out to be 19 nM; on full-length RIIα, 150 nM.
“Ac-DLAWKIAKMIVSDVMQQ (listed as Homo sapiens) [SEQ ID NO:102]”: the “binding to RIα, in words” value in the assay with full-length RIα was “reduced binding”. In the assay with full-length RIIα, the “binding to RIIα, in words” value is given as “reduced binding”.

The record behind these values is patent publication US7432342B2, “Kinase anchor protein muteins, peptides thereof and related documents” (Sequenom, Inc., priority 2002, dated 2008).
